Measurements: patent publication US11191746B2, “Composition for inhibiting a growth of cancer stem cells comprising ciclesonide” (JEJU NATIONAL UNIVERSITY INDUSTRY-ACADEMIC COOPERATION …, priority 2016, dated 2021)

Columns and labels:
Assay type in all cases: cell-based, human
[1] = system: A549 cell-derived tumorspheres; test: Tumorsphere formation; conditions: A549 tumorspheres
Procedure: Human lung cancer cells, A549, were cultured under the same culture conditions as those for the breast cancer cells of Example 2-1. To establish primary tumorspheres, single cell-suspended A549 cells were inoculated into ultra-low attachment 6-well plates containing 2 ml of Cancer Stem Premium medium (ProMab Biotechnologies Inc, Richmond, Calif., USA) at a density of 5×10^4 cells/well. The cells were incubated in a 5% CO2 incubator at 37° C. for 10 days.
Lung cancer tumorspheres were counted in the same manner as in Example 3-1, and for the analysis of tumorsphere formation, tumorsphere formation efficiency (TFE, %) was determined by the following equation: TFE (%)=number of tumorspheres per well/total number of plated cells per well×100.

[2] = system: MDA-MB-231 cell-derived mammospheres; test: Mammosphere formation; conditions: MDA-MB-231 mammospheres, 80 μM
Procedure: (§1) Human breast cancer cells, MCF-7, were obtained from American Type Culture Collection (ATCC; Manassas, Va., USA). MCF-7 cells and MDA-MB-231 cells were cultured in Dulbecco's Modified Essential Medium (DMEM; Hyclone, Logan, Utah, USA) containing 10% fetal bovine serum (FBS; Hyclone), 100 U/ml of penicillin, and 100 μg/ml of streptomycin (Hyclone). The MCF-7 cells were maintained in a humidified incubator containing 5% CO2 at 37° C. The cells were plated in 10 cm culture dishes at a density of 1×10^6 cells. To establish primary mammospheres, single cell-suspended MCF-7 cells were inoculated into ultra-low attachment 6-well plates containing 2 ml of complete MammoCult™ medium (StemCell Technologies, Vancouver, BC, Canada) at a density of 3.5 to 4×10^4 cells/well. The complete MammoCult™ medium was supplemented with 4 μg/ml of heparin, 0.48 μg/ml of hydrocortisone, 100 U/ml of penicillin, and 100 μg/ml of streptomycin. The cells were incubated in a 5% CO2 incubator at 37° C. for 7 days.
(§2) On day 10 of culture, cell culture plates were placed on a scanner (Epson Perfection V700 PHOTO, Epson Korea, Co, Seoul, Korea) to obtain 8-bit gray scale images of mammospheres. The images were acquired using a NICE software program downloaded from ftp://ftp.nist.gov/pub/physics/mlclarke/NICE at a low resolution of 300 dpi. For counting, a desired number of rows and columns (e.g., 2×3 for a 6-well plate) were selected to generate ROIs and after selecting the elliptical setting of the NICE program, the individual ROIs were defined by adjusting the movement and size of the provided ROI shapes. The background signals of the images were negated using a threshold algorithm, and the selected images were automatically counted. To analyze the formation of mammospheres, mammosphere formation efficiency (MFE, %) was determined by the following equation: MFE (%)=the number of mammospheres per well/a total number of plated cells per well×100.

[3] = system: MCF-7 cell-derived mammospheres; test: Mammosphere formation; conditions: MCF-7 mammospheres, 80 μM
Procedure: as §1, §2

Compound	lung cancer stem cell inhibitory activity ([1]; 5 μM and 10 μM)	growth of breast cancer stem cells [2]	growth of breast cancer stem cells [3]	lung cancer stem cell inhibitory activity ([1]; 80 μM)
isobutyryl ciclesonide	exhibited a lung cancer stem cell inhibitory activity	–	–	–
C[C@]12C=CC(=O)C=C1CC[C@@H]1[C@@H]2C(=O)C[C@@]2(C)[C@H]1CC[C@]2(O)C(=O)CO [prednisone]	–	unable to inhibit	unable to inhibit	did not exhibit a lung cancer stem cell inhibitory activity
